One block for each compound: values may come before it.
What was measured:
[1] = Pharmacokinetic study in humans, single dose on an empty stomach; format: in vivo, human; settings: single dose 0.1-10 mg, healthy adult males
Method: Rovatirelin trihydrate (0.1, 0.3, 1, 2.5, 5 or 10 mg) or placebo was administered to 48 healthy adult males (6 individuals per group and 12 on placebo) as a single dose on an empty stomach. Analysis of the pharmacokinetics of intact rovatirelin under this condition indicated linearity of Cmax (maximum plasma concentration), AUC0-∞ (area under the plasma concentration curve vs. time curve from time 0 to infinity), and Ae0-48 (cumulative amount excreted into urine from time 0-48 hours) of rovatirelin in a dosage range from 0.1-10 mg.

[2] = PTL 2; cited from earlier work
animal models = settings: PTL 2; cited from earlier work
ataxia in SCD = settings: NPL 3, cited from earlier work
SCD patients [3] = test: Clinical trial of SCD patients (Phase II study); format: in vivo, human; settings: for amount of change in the SARA total score: 24 weeks, pure cerebellar SCD patients, mean
Method: Rovatirelin trihydrate (0.4, 0.8, 1.6 or 3.2 mg) or placebo was orally administered to 225 SCD patients once daily after breakfast for 24 weeks (double-blind).
The efficacy endpoint was the amount of change in the SARA total score calculated by, as an example, the SARA total score at the final assessment in the treatment period (the final observed value in the treatment period) minus that at the end of the pre-observation period as an example. The safety endpoints were, as an example, the occurrence of adverse events and side effects, physiological examinations (e.g., blood pressure and pulses), and endocrinologic examinations (e.g., FT3 and FT4).
It is noted that the SARA total score was calculated by a sum of the SARA scores for each item ((i.e., gait (score 0-8), stance (score 0-6), sitting (score 0-4), speech disturbance (score 0-6), finger chase (score 0-4), nose-finger test (score 0-4), fast alternating hand movements (score 0-4), and heel-shin slide (score 0-4) (the score 0 is normal for all items)).

[4] = Repeated dose study in healthy adult males; format: in vivo, human; settings: for transition of FT3 value (serum concentration, mean) / transition of FT4 values (serum concentration, mean): oral, 9 days
Method: To 50 healthy adult males (8 individuals per group and 10 on placebo), rovatirelin trihydrate (0.25, 0.5 or 1.0 mg) or placebo was orally administered once daily or rovatirelin trihydrate (0.25 or 0.5 mg) or placebo was orally administered twice daily after breakfast and after dinner, for 9 consecutive days.
Serum concentrations (mean) of FT3, FT4, TSH, and prolactin (PRL), and adverse events and the like were evaluated.

[5] = system: patients with pure cerebellar SCD; test: Clinical trial of pure cerebellar SCD patients (Phase III study); format: in vivo, human
Method: Rovatirelin trihydrate at a dose of 1.6 or 2.4 mg or placebo was orally administered to patients with pure cerebellar SCD (SCA6, SCA31 or cortical cerebellar atrophy (CCA)) with ataxia once daily after breakfast for 28 weeks (double-blind; 124 patients in the 1.6 mg group, 122 patients in the 2.4 mg group, and 123 patients in the placebo group).
To appropriately assess the efficacy of rovatirelin trihydrate on ataxia, this study was performed on pure cerebellar SCD patients with a SARA gait score between 2 and 6 and a SARA total score of ≥6.
The same items as those listed in Example 3 were used as efficacy and safety endpoints. SCD is a disease that automatically becomes worse; therefore it is important in the treatment to retard the deterioration. Accordingly, patients with a […] in their SARA score compared with the time in week 0 were defined as deteriorated patients, and deterioration rates (i.e., the number of deteriorated patients/total number of patients) in the SARA total score and SARA scores for each item were calculated.

[6] = system: pure cerebellar SCD patients; test: Long-term extension study of pure cerebellar SCD patients; format: in vivo, human; settings: 2.4 mg once daily, at 52 weeks
Method: For patients who completed the phase III study (Example 4), rovatirelin trihydrate was administered at 1.6 or 2.4 mg once daily for 52 weeks (open-label parallel-group comparative study).
The same items as those listed in Example 4 were used as efficacy and safety endpoints, and deterioration rates (i.e., the number of deteriorated patients/total number of patients) in the SARA total score and SARA scores for each items were calculated in a similar manner.

SCD patients [7] = test: Study of switch from conventional drugs to rovatirelin in SCD patients; format: in vivo, human; settings: switch group from taltirelin, 24 weeks, P<0.01
Method: To the patients were orally administered rovatirelin trihydrate at 1.6 or 2.4 mg once daily after breakfast for 24 weeks (randomized, open-label parallel-group comparative study).
A 4-week pre-observation period was set prior to the start of the treatment period. For patients who received a conventional SCD agent taltirelin or protirelin agent (TRH agent) before the pre-observation period, the medication was continued until the end of the pre-observation period without changing its dosage and administration.
The same items as those listed in Example 4 were used as efficacy and safety endpoints.

[8] = 0.5 mg once daily (0.5 mg/qd) compared with 0.25 mg twice daily
[9] = 1 mg once daily (1 mg/qd) compared with 0.5 mg twice daily
[10] = 2.4 mg group, elderly aged ≥65 years

- dose proportionality of AUC0-∞ [1]: linearity
- dose proportionality of Ae0-48 (cumulative amount excreted into urine 0-48 hours) [1]: linearity
- dose proportionality of Cmax (maximum plasma concentration) [1]: linearity
Structure (SMILES): C[C@@H]1OC(=O)N[C@@H]1C(=O)N[C@@H](Cc1cscn1)C(=O)N1CCC[C@H]1C [rovatirelin, (4S,5S)-5-methyl-N-{(2S)-1-[(2R)-2-methylpyrrolidin-1-yl]-1-oxo-3-(1,3-thiazol-4-yl)propan-2-yl}-2-oxo-1,3-oxazolidine-4-carboxamide]
- bioavailability (BA) [2]: high
- effects in improving ataxia relative to taltirelin (animal models): at least 30 times

Structure (SMILES): CN1C(=O)C[C@@H](C(=O)N[C@@H](Cc2cnc[nH]2)C(=O)N2CCC[C@H]2C(N)=O)NC1=O.O.O.O.O [Taltirelin hydrate]
- total improvement level (subjective assessment of a physician) versus placebo (ataxia in SCD; after 28 weeks, ataxia in SCD): significant difference
- individual symptoms (symptom of ataxia) (ataxia in SCD; phase III double-blind comparative study): no significant improvement was observed

- discontinuation rate (SCD patients [3]; 1.6 mg group (placebo 15.6%)): 17.8%
- discontinuation rate (SCD patients [3]; 3.2 mg group (placebo 15.6%)): 28.9%
- transition of FT3 value (serum concentration, mean) [4, 8]: proceeded at lower levels as a whole
- FT4 concentrations versus reference limit ([4]; 0.5 mg twice daily, Day 5 and Day 9, reference limits 0.9 and 1.7 ng/dL): above the reference limit
- transition of FT3 value (serum concentration, mean) [4, 9]: proceeded at lower levels as a whole
- transition of FT4 values (serum concentration, mean) [4, 9]: proceeded at lower levels as a whole
- discontinuation rate ([5]; 1.6 mg group (placebo 4.9%)): 16.0%
- discontinuation rate ([5]; 2.4 mg group (placebo 4.9%)): 19.8%
Structure (SMILES): C[C@@H]1OC(=O)N[C@@H]1C(=O)N[C@@H](Cc1cscn1)C(=O)N1CCC[C@H]1C [rovatirelin trihydrate]
- amount of change in the SARA total score (SCD patients [3]; 0.4 mg once daily): −1.09 score
- amount of change in the SARA total score (SCD patients [3]; 0.8 mg once daily): −1.27 score
- amount of change in the SARA total score (SCD patients [3]; 1.6 mg once daily): −1.58 score
- FT3 and FT4 concentrations versus upper reference limits (SCD patients [3]; 3.2 mg once daily): slightly above the upper reference limits
- amount of change in the SARA total score (SCD patients [3]; 3.2 mg once daily): −1.65 score
- side effect rate compared with placebo (Fisher's exact test) (SCD patients [3]; 3.2 mg once daily, P=0.002): significantly differed
- transition of FT4 values (serum concentration, mean) [4, 8]: comparable for both groups or the transition for the 0.5 mg/qd group proceeded at slightly lower levels
- FT3 and FT4 concentrations versus normal range ([5]; 1.6 mg and 2.4 mg groups, 4 weeks after the start of administration, no further increase subsequently): reached the upper limit of the normal range
- SARA gait and stance scores compared with the placebo group ([5]; 1.6 mg group): no improvement was observed
- SARA total score compared with the placebo group ([5]; 1.6 mg group): no improvement was observed
- amount of change in the SARA total score ([5]; 1.6 mg once daily, 28 weeks, compared with pre-dose score): −0.75
- deterioration rate of the SARA total score ([5]; 2.4 mg group (placebo 30.9%)): 23.8%
- amount of change in the SARA gait score [5, 10]: −0.19
- amount of change in the SARA stance score [5, 10]: −0.54
- amount of change in the SARA total score [5, 10]: −1.39
- amount of change in the SARA total score ([5]; 2.4 mg once daily, 28 weeks, compared with pre-dose score): −1.22
- deterioration rate for items (gait) [6]: 9.9%
- deterioration rate of the SARA total score [6]: 21.0%
- amount of change in the SARA total score ([6]; 81 patients who completed): −1.41
- amount of change in the SARA total score at an endpoint (SCD patients [7]; 1.6 mg once daily): −1.34
- amount of change in the SARA total score at an endpoint (SCD patients [7]; 2.4 mg once daily): −1.35

Reference: patent US20180147189A1, “ADMINISTRATION REGIMEN FOR THERAPEUTIC AGENTS FOR ATAXIA IN SPINOCEREBELLAR DEGENERATION” (KISSEI PHARMACEUTICAL CO., LTD., priority 2015, published 2018)
